Test results: US20100152108A1, “METHODS AND COMBINATION THERAPIES FOR TREATING ALZHEIMER'S DISEASE” (priority 2006, published 2010)
Values joined by “and” are separate entries in the source; they are usually repeats but may differ in a detail not shown here. Equal values may be shown once. Read-outs that look alike come from different tables or passages of the source.

Columns and labels:
[1] = tested on: release of acetylcholine from the cortex; conditions: microdialysis; cited from earlier work
amyloid beta 42 (Aβ42) = conditions: cultured human cells and animal models; cited from earlier work
[2] = tested on: patients with mild to moderate Alzheimer's disease
Description: Patients were evaluated with the ADAS-cog (primary endpoint), CIBIC-plus, MMSE, NPI and ADL at baseline, week 12 and week 26. The Alzheimer's Disease Assessment Scale Cognitive Subscale (ADAS-cog) score assesses memory and cognition over time. The Mini Mental State Exam (MMSE) also assesses memory and cognition. The Alzheimer's Disease Cooperative Study-Clinical Global Impression of Change (ADCS-CGIC, also called CIBIC-plus) measures the patient's global status over time. It takes into account memory, cognition, behavior and motor disturbance. The Neuropsychiatric Inventory (NPI) measures the patients' behavior and psychiatric disturbance in 12 domains including delusions, hallucinations, agitation/aggression, depression/dysphoria, anxiety, elation/euphoria, apathy/indifference, disinhibitions, irritability/lability, motor disturbance, nighttime behaviors, and appetite/eating. An ADL inventory assesses the impact of cognitive impairment on activities of daily living. […] All subjects enrolled were included in the intention-to-treat analysis. Thus, the analysis includes all randomized patients, even those who discontinued the study prior to study completion.

scopolamine-treated rats = test: Two-trial object recognition paradigm in scopolamine-treated rats; assay type: in vivo, Sprague-Dawley rats; conditions: for Memory Performance (N-F, difference in time spent with the novel object and familiar object): scopolamine 0.3 mg/kg i.p., mean ± SEM
Description: The two-trial object recognition paradigm developed by Ennaceur and Delacour in the rat was used as a model of episodic memory.
Male Sprague-Dawley rats between six and seven weeks old, weighing between 220-300 grams were obtained from Centre d′Elevage (Rue Janvier, B.P. 55, Le Genest-Saint-Isle 53940, France). The animals were housed in groups of 2 to 4 in polypropylene cages (with a floor area of 1032 cm^2) under standard conditions: at room temperature (22±2° C.), under a 12 hour light/12 hour dark cycle, with food and water provided ad libitum. Animals were permitted to acclimate to environmental conditions for at least 5 days before therapy begins, and were numbered on their tails with indelible marker.
The experimental arena was a square wooden box (60 cm×60 cm×40 cm) painted dark blue, with 15 cm×15 cm black squares under a clear plexiglass floor. The arena and objects placed inside the arena were cleaned with water between each trial to eliminate any odor trails left by rats. The arena was placed in a dark room illuminated only by halogen lamps directed towards the ceiling in order to produce a uniformly dim light in the box of approximately 60 lux. The day before testing, animals were allowed to freely explore the experimental arena for three minutes in the presence of two objects (habituation). Animals to be tested were placed in the experimental room at least 30 minutes before testing.
On the day of the experiment, animals were submitted to two trials separated by an interval of 120 minutes. During the first, or acquisition, trial (T1), rats were placed in the arena, which was prepared with two identical objects. The time required for each animal to complete 15 seconds of object exploration was determined, with a cut-off time of four minutes. […] Rats were placed back in the arena for three minutes, and exploration of both objects was determined. Locomotor activity of rats (number of times rats cross grid lines visible under the clear plexiglass floor) was scored for during T1 and T2. […]
The following parameters were measured: (1) time required to achieve 15 seconds of object exploration during T1; (2) locomotor activity during T1 (number of crossed lines); (3) time spent in active exploration of the familiar object during T2 (TFamiliar); (4) time spent in active exploration of the novel object during T2 (TNovel); and (5) locomotor activity during T2 (number of crossed lines). The difference between time spent in active exploration of the novel object during T2 and time spent in active exploration of the familiar object during T2 (ΔTNovel−TFamiliar) was evaluated. The recognition index [(TNovel−TFamiliar/(TNovel+TFamiliar)] was derived, and the percentage of animals with TNovel−TFamiliar>5 seconds was assessed. […]

[3] = tested on: human neuroblastoma SK-N-SH; conditions: cited from earlier work
[4] = week 26, dimebon 20 mg orally three times a day vs placebo

Structure (SMILES): CN[C@@H](C)C/C=C/c1cncc(OC(C)C)c1 [TC-1734]
- release of acetylcholine from the cortex [1]: enhances the release of acetylcholine

Structure (SMILES): C[C@@H](C(=O)O)c1ccc(-c2ccccc2)c(F)c1 [Flurizan]
- levels of amyloid beta 42 (Aβ42) (amyloid beta 42 (Aβ42)): reduces levels

Structure (SMILES): Cc1ccc2c(c1)c1c(n2CCc2ccc(C)nc2)CCN(C)C1.Cl.Cl [Dimebon, 2,8-dimethyl-5-(2-(6-methyl-3-pyridyl)-ethyl)-2,3,4,5-tetrahydro-1H-pyrido(4,3-b)indol dihydrochloride]
- all other gastrointestinal side effects combined ([2]; in vivo): < 3%
- patients who experienced serious adverse events ([2]; in vivo): 3.4%
- tolerability ([2]; in vivo): well-tolerated
- patients who experienced serious adverse events ([2]; in vivo, po): 2.2%
- most common adverse event: dry mouth ([2]; in vivo, dihydrochloride): 18% and 13.5%
- ADL mean drug-placebo difference [2, 4]: 3.35 units
- CIBIC-plus mean drug-placebo difference [2, 4]: 0.61 units
- MMSE mean drug-placebo difference [2, 4]: 2.24 units
- NPI mean drug-placebo difference [2, 4]: 3.57 units
- ADAS-cog mean drug-placebo difference ([2]; week 26, dimebon 20 mg orally three times a day vs placebo, intention-to-treat): 4.0 units
- change in the 5 endpoints, mean baseline scores compared with week 26 scores ([2]; week 26 vs baseline, ADAS-cog, CIBIC-plus, MMSE, NPI, ADL): significant improvements in all 5 endpoints
- ADAS-cog mean drug-placebo difference ([2]; week 52, dimebon vs placebo): 6.9 units
- ADL mean drug-placebo difference ([2]; week 52, dimebon vs placebo): 5.2 units
- CIBIC-plus mean drug-placebo difference ([2]; week 52, dimebon vs placebo): 0.80 units
- MMSE mean drug-placebo difference ([2]; week 52, dimebon vs placebo): 2.3 units
- NPI mean drug-placebo difference ([2]; week 52, dimebon vs placebo): 3.5 units
- change in the 5 endpoints, mean baseline scores compared with week 52 scores ([2]; week 52 vs baseline, ADAS-cog, CIBIC-plus, MMSE, NPI, ADL): improvements in all 5 endpoints
- effect at doses below the maximally effective dose, tested individually (scopolamine-treated rats; dimebon 2.5 mg/kg oral, donepezil 0.03 mg/kg intraperitoneal): only partially effective
- maximally effective dose (scopolamine-treated rats; oral): 5 mg/kg
- Memory Performance (N-F, difference in time spent with the novel object and familiar object) (scopolamine-treated rats; vehicle i.p. + Dimebon 2.5 mg/kg p.o.): 2.57 ± 0.95 s
- Memory Performance (N-F, difference in time spent with the novel object and familiar object) (scopolamine-treated rats; vehicle i.p. + Dimebon 5 mg/kg p.o.): 5.00 ± 2.09 s

Structure (SMILES): C#CCN[C@@H]1CCc2ccc(OC(=O)N(C)CC)cc21 [Ladostigil]
- apoptosis-induced levels of holo-APP protein [3]: reduces apoptosis-induced levels of holo-APP protein
- phospho PKC and release of the nonamyloidogenic amyloid protein [3]: increases phospho PKC and the release of the nonamyloidogenic amyloid protein
- apoptotic cell death ([3]; in response to long term culture): reduces apoptotic cell death
